Data published in patent publication US4481193A, “Des-proline vasopressin antagonists” (SmithKline Beckman Corporation, priority 1984, dated 1984).
*1 amine or outer side, *2 acyl side, *3 side chain or, on linkers, in order; H or OH if unused. Where a SMILES comes first, the peptide text is derived from it. Bridges are numbered along the chain shown (N, C = ends). [ ]: non-standard residue; d: D form. X1 = O=C(CC1(S[*:2])CCCCC1)[*:1]

Columns and labels:
[1] = target: T1, vasopressin stimulated adenylate cyclase (Sus scrofa, UniProt P32307); assay: Vasopressin stimulated adenylate cyclase activity, hog kidney medullary membrane; type: biochemical; conditions: antagonism of vasopressin stimulated adenylate cyclase, read-out: In Vitro (Pig) Ki
T1 construct: from tissue; host or cells: hog kidney medullary membranes
T1 sequence (P32307 whole entry): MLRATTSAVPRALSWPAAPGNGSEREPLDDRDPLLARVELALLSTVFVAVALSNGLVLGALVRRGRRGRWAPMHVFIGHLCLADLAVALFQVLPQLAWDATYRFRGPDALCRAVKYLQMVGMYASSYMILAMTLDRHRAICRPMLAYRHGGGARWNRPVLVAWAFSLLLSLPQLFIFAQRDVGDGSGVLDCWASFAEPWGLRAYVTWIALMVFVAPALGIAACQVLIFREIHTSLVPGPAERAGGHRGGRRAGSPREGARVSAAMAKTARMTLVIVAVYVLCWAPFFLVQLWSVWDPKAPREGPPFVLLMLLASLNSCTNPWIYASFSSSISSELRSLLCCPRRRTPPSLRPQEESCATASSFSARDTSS
Protocol: (§1) Antagonistic activity toward the natural antidiuretic hormone (anti-ADH activity) is determined, in vitro, in the medullary tissue of hog or human kidneys and, in vivo, in the hydropenic rat. The in vitro assay procedures for vasopressin stimulated adenylate cyclase activation or vasopression binding activity are described by F. Stassen et al., J. Pharmacology and Experimental Therapeutics, 223, 50-54 (1982).
In the test procedure for assay of adenylate cyclase activity, the amount of ^32 P/cAMP formed in the absence of medullary membrane is determined (blank). The blank value is substracted from all experimental data. The compound is tested for its effect on basal adenylate cyclase activity and/or on vasopressin stimulated activity. Each determination is carried out in triplicate. The Ka value is derived from a Lineweaver-Burkeplot. Rel. Vmax =(Vmax drug/Vmax vasopressin)×100. Ki =I/[Ka'/Ka)-1] where I is the concentration of the antagonist, and Ka' and Ka are the concentrations of vasopressin required to give half-maximal activity of adenylate cyclase in the presence and absence of antagonist, respectively.

[2] = target: T2, vasopressin receptors (V2 -receptors) (Sus scrofa, UniProt P32307); assay: 3H-vasopressin binding assay, hog kidney membranes; conditions: competitive inhibition of 3H-vasopressin binding, KB = IC50/(1+L/KD), read-out: In Vitro (Pig) KB
T2 construct: from tissue; host or cells: hog kidney medullary membranes
T2 sequence (P32307 whole entry): as above
Protocol: as §1
In the test procedure for binding assays, the amount of ^3 H-vasopressin bound in the absence and in the presence of an excess of vasopressin (7.5×10^-6 M) is measured in triplicate. These values represent total and non-specific binding, respectively. […] This is the average KD value determined on 3 preparations of hog kidney membranes.

[3] = target: T3, vasopressin stimulated adenylate cyclase (Homo sapiens, UniProt P30518); assay: Vasopressin stimulated adenylate cyclase activity, human kidney medullary tissue; type: biochemical; conditions: read-out: In Vitro (Human) Ki
T3 construct: from tissue; host or cells: human kidney medullary membranes
T3 sequence (P30518 whole entry): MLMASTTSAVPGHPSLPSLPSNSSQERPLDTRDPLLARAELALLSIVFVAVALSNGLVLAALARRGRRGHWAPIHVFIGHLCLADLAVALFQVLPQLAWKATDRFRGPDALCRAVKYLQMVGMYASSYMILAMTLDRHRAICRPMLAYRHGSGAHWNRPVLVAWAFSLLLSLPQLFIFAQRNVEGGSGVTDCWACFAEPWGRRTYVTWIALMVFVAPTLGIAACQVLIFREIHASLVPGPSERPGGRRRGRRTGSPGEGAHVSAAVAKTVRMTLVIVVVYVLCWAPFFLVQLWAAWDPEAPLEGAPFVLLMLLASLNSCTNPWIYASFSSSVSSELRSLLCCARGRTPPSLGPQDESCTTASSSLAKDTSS
Protocol: as §1

[4] = test system: hydropenic rat; assay: Hydropenic rat screen (anti-ADH activity in vivo); conditions: estimated dose delivered ip which reduces Uosm from hydropenic levels to 300 mOsmoles/kg H2O; male rats
Protocol: as §1
The assay for anti-ADH activity is the hydropenic rat protocol is described below:
Food and water are removed from male rats approximately 18 hours prior to testing. Animals are housed 4 per metabolism cage. At 0 hour, the test compound is administered intraperitoneally to the test group and an equivalent volume of vehicle is administered to both control groups (fasted and non-fasted). Urine volume and osmolality are measured every hour for 4 hours. Test values are recorded as ml of urine excreted (cumulative), mEq/rat electrolyte excreted, mg/rat urea excreted, and osmolality in milli-Osmoles/kg H2 O. A tolerance test is used to determine significance. ED300 is defined as the dose of compound (μg/kg) required to lower urine osmolality to 300 m-Osmoles/kg.

Structure (SMILES) | Ki [1] [nM] | Kb [2] [nM] | Ki [3] [nM] | In Vivo (Rat) ED300 [4] [mg/kg]
CCOc1ccc(C[C@H]2NC(=O)CC3(CCCCC3)SSC[C@@H](C(=O)N[C@@H](CCCN=C(N)N)C(=O)NCC(N)=O)NC(=O)[C@H](CC(N)=O)NC(=O)[C@H](C(C)C)NC(=O)[C@H](Cc3ccccc3)NC2=O)cc1 [A] ([dY](Et)FVNCRG-NH2; linker N-5 via X1) | 2.7 | 17 | 9.8 | –
CCOc1ccc(C[C@H]2NC(=O)CC3(CCCCC3)SSC[C@@H](C(=O)N3CCC[C@H]3C(=O)N[C@@H](CCCNC(=N)N)C(=O)NCC(N)=O)NC(=O)[C@H](CC(N)=O)NC(=O)[C@H](C(C)C)NC(=O)[C@H](Cc3ccccc3)NC2=O)cc1 [B, [mercapto-β,cyclopentamethylenepropionic acid)2-(O--ethylD-tyrosine)-4-valine-8-argininevasopressin] ([dY](Et)FVNCPRG-NH2; linker N-5 via X1 (inferred); C-terminus assumed) | – | – | – | 0.011
